Test results reported in patent EP0726261A1, “Herbidical 1,2,4 thiadiazoles” (American Cyanamid Company, priority 1995, dated 1996).

Key:
Format in all cases: in vivo
[1] = system: Triticum aestivum; experiment: Preemergence herbicidal activity (Example 67); set-up: herbicide rating, TRZAW: scale not given here; conditions: pre, 800 g/ha
Method: (§1) Herbicidal evaluation of compounds of the invention is conducted on the following plant species:
(§2) The soil is a prepared horticultural substrate containing 30% peat, 20% volcanic clay, 30% bark residues and 20% polyamide/styromull in a 1:3 mixture with loamy sand. Test solutions are prepared by dissolving the test compound in acetone containing 0.5% of an alkylphenol/ethylene oxide condensate under the trademark, TRITON® X-155, and diluting with water as needed. The test solutions are applied as a spray to the 3-6 week old seedling plants at dose rates corresponding to 800g/ha in a volume equivalent to 400 L/ha. A pneumatic spraying device employing a Teejet nozzle SS 8002E operating at 3 bar is used for a predetermined time. After spraying, the treated plants are placed on greenhouse benches and cared for in a manner commensurate with conventional greenhouse practice. After 10-21 days, the treated plants are evaluated and rated according to the rating system provided below.
(§3) The soil surface is then sprayed with test solutions as described in the postemergence evaluation hereinabove. After spraying, the treated cups are placed on greenhouse benches and cared for in the manner commensurate with conventional greenhouse practice. About 1-3 weeks after treatment the cups are evaluated and rated according to the rating system provided hereinabove.

[2] = system: Hordeum vulgare; experiment: Preemergence herbicidal activity (Example 67); set-up: herbicide rating, HORVW: scale not given here; conditions: pre, 800 g/ha
Method: as §1, §2, §3

[3] = system: Alopecurus myosuroides; experiment: Preemergence herbicidal activity (Example 67); set-up: herbicide rating, ALOMY: scale not given here; conditions: pre, 800 g/ha
Method: as §1, §2, §3

[4] = system: Setaria viridis; experiment: Preemergence herbicidal activity (Example 67); set-up: herbicide rating, SETVI: scale not given here; conditions: pre, 800 g/ha
Method: as §1, §2, §3

[5] = system: Abutilon theophrasti; experiment: Preemergence herbicidal activity (Example 67); conditions: pre, 800 g/ha
Method: as §1, §2, §3

[6] = system: Amaranthus retroflexus; experiment: Preemergence herbicidal activity (Example 67); conditions: pre, 800 g/ha
Method: as §1, §2, §3

[7] = system: Chenopodium album; experiment: Preemergence herbicidal activity (Example 67); conditions: pre, 800 g/ha
Method: as §1, §2, §3

[8] = system: Galium aparine; experiment: Preemergence herbicidal activity (Example 67); conditions: pre, 800 g/ha
Method: as §1, §2, §3

[9] = system: Helianthus annuus; experiment: Preemergence herbicidal activity (Example 67); conditions: pre, 800 g/ha
Method: as §1, §2, §3

[10] = system: Ipomoea hederacea; experiment: Preemergence herbicidal activity (Example 67); conditions: pre, 800 g/ha
Method: as §1, §2, §3

[11] = system: Veronica persica; experiment: Preemergence herbicidal activity (Example 67); conditions: pre, 800 g/ha
Method: as §1, §2, §3

[12] = system: Zea mays; experiment: Preemergence herbicidal activity (Example 67); conditions: pre, 800 g/ha
Method: as §1, §2, §3

[13] = system: Abutilon theophrasti; experiment: Postemergence herbicidal activity (Example 67); conditions: pos, 800 g/ha
Method: as §1, §2

[14] = system: Alopecurus myosuroides; experiment: Postemergence herbicidal activity (Example 67); conditions: pos, 800 g/ha
Method: as §1, §2

[15] = system: Amaranthus retroflexus; experiment: Postemergence herbicidal activity (Example 67); conditions: pos, 800 g/ha
Method: as §1, §2

[16] = system: Chenopodium album; experiment: Postemergence herbicidal activity (Example 67); conditions: pos, 800 g/ha
Method: as §1, §2

[17] = system: Galium aparine; experiment: Postemergence herbicidal activity (Example 67); conditions: pos, 800 g/ha
Method: as §1, §2

[18] = system: Helianthus annuus; experiment: Postemergence herbicidal activity (Example 67); conditions: pos, 800 g/ha
Method: as §1, §2

[19] = system: Hordeum vulgare; experiment: Postemergence herbicidal activity (Example 67); conditions: pos, 800 g/ha
Method: as §1, §2

[20] = system: Ipomoea hederacea; experiment: Postemergence herbicidal activity (Example 67); conditions: pos, 800 g/ha
Method: as §1, §2

[21] = system: Setaria viridis; experiment: Postemergence herbicidal activity (Example 67); conditions: pos, 800 g/ha
Method: as §1, §2

[22] = system: Triticum aestivum; experiment: Postemergence herbicidal activity (Example 67); conditions: pos, 800 g/ha
Method: as §1, §2

[23] = system: Veronica persica; experiment: Postemergence herbicidal activity (Example 67); conditions: pos, 800 g/ha
Method: as §1, §2

[24] = system: Zea mays; experiment: Postemergence herbicidal activity (Example 67); conditions: pos, 800 g/ha
Method: as §1, §2

[25] = rated about 1-3 weeks after treatment

O=C(NC1CCCc2ccccc21)c1nc(-c2ccccc2F)ns1 (racemic) [Example 53]
5 (45-64%): SET VI rating [21]
0: HOR VW rating [2] | ALO MY rating [3] | SET VI rating [4] | ABU TH rating [5] | CHE AL rating [7] | GAL AP rating [8] | HEL AN rating [9] | IPO HE rating [10] | ZEA MX rating [12] | ABU TH rating [13] | AMA RE rating [15] | CHE AL rating [16] | HEL AN rating [18] | VER PE rating [23] | ZEA MX rating [24]
2 (6-15%): GAL AP rating [17] | HOR VW rating [19] | IPO HE rating [20] | TRZ AW rating [22]
6 (65-79%): VER PE rating [11]
3 (16-29%): AMA RE rating [6]
1 (1-5%): TRZ AW rating [1] | ALO MY rating [14]

COc1ccc(-c2nsc(C(=O)NC3CCCc4ccccc43)n2)cc1 (racemic) [Example 54]
0: TRZ AW rating [1] | HOR VW rating [2] | ALO MY rating [3] | SET VI rating [4] | ABU TH rating [5] | AMA RE rating [6] | CHE AL rating [7] | GAL AP rating [8] | HEL AN rating [9] | IPO HE rating [10] | VER PE rating [11] | ZEA MX rating [12] | AMA RE rating [15] | VER PE rating [23]
3 (16-29%): GAL AP rating [17] | HOR VW rating [19] | SET VI rating [21]
4 (30-44%): HEL AN rating [18] | ZEA MX rating [24]
2 (6-15%): ABU TH rating [13] | ALO MY rating [14] | CHE AL rating [16] | IPO HE rating [20]
1 (1-5%): TRZ AW rating [22]

CC(NC(=O)c1nsc(-c2ccccc2F)n1)c1cccs1 (racemic) [Example 57, (R/S)-5-(2-Fluorophenyl)-[1,2,4]thiadiazole-3-carboxylic acid, [1-(2-thienyl)ethyl]amide]
9 (100% effect): ABU TH rating [13] | SET VI rating [21]
3 (16-29%): ALO MY rating [3] | TRZ AW rating [22]
1 (1-5%): CHE AL rating [7]
7 (80-90%): AMA RE rating [15] | GAL AP rating [17] | IPO HE rating [20]
8 (91-99%): HEL AN rating [18]
5 (45-64%): ZEA MX rating [24]
0: HOR VW rating [2] | ABU TH rating [5] | GAL AP rating [8] | HEL AN rating [9] | IPO HE rating [10] | VER PE rating [11] | ZEA MX rating [12]
4 (30-44%): AMA RE rating [6] | ALO MY rating [14] | CHE AL rating [16] | HOR VW rating [19]
6 (65-79%): VER PE rating [23]
2 (6-15%): TRZ AW rating [1] | SET VI rating [4]

COc1ccc(-c2nsc(C(=O)N[C@@H](C)c3ccccc3)n2)cc1 [Example 2, (S)-3-(4-Methoxyphenyl)-[1,2,4]thiadiazole-5-carboxylic acid (1-phenylethyl)amide]
0: herbicide rating, TRZAW [1, 25] | herbicide rating, HORVW [2, 25] | herbicide rating, ALOMY [3, 25] | herbicide rating, SETVI [4, 25] | herbicide rating, ABUTH [5, 25] | herbicide rating, AMARE [6, 25] | herbicide rating, CHEAL [7, 25] | herbicide rating, GALAP [8, 25] | herbicide rating, HELAN [9, 25] | herbicide rating, VERPE [11, 25] | herbicide rating, ZEAMX [12, 25] | herbicide rating, AMARE ([15]; rated after 10-21 days) | herbicide rating, GALAP ([17]; rated after 10-21 days) | herbicide rating, VERPE ([23]; rated after 10-21 days)
3 (16-29%): herbicide rating, CHEAL ([16]; rated after 10-21 days)
5 (45-64%): herbicide rating, IPOHE [10, 25] | herbicide rating, SETVI ([21]; rated after 10-21 days)
2 (6-15%): herbicide rating, ALOMY ([14]; rated after 10-21 days) | herbicide rating, HORVW ([19]; rated after 10-21 days) | herbicide rating, IPOHE ([20]; rated after 10-21 days) | herbicide rating, TRZAW ([22]; rated after 10-21 days)
1 (1-5%): herbicide rating, ABUTH ([13]; rated after 10-21 days) | herbicide rating, HELAN ([18]; rated after 10-21 days) | herbicide rating, ZEAMX ([24]; rated after 10-21 days)
